We go through 23 compounds from publication PMC9583322, “Vicinal Diaryl-Substituted Isoxazole and Pyrazole Derivatives with In Vitro Growth Inhibitory and In Vivo Antitumor Activity” (ACS Omega, 2022).

In one data set the test system is Huh7. Nature of the data set: SRB cytotoxicity assay. Format: cell-based, human. To be noted: Homo sapiens, Huh-7, 72 h, 72 h treatment. The protocol:
(§1) HepG2, FOCUS, Hep3B, Mahlavu, Huh7, Hep40, and PLC-PRF-5 hepatocellular carcinoma cells; MCF-7, MDA-MB-231, MDA-MB-468, SKBR3, and ZR-75 breast cancer cells; and normal-like epithelial MCF-10A breast cells were cultured in low-glucose Dulbecco’s modified Eagle’s medium (DMEM) (Biological Industries-BI) supplemented with 10% fetal bovine serum (FBS) (Gibco/Thermo Fisher Scientific), 2 mM L-Glutamine (Gibco/Thermo Fisher Scientific), 100 Units/mL Penicillin/Streptomycin, and 0.1 mM non-essential amino acid (Gibco/Thermo Fisher Scientific). SNU475 hepatocellular carcinoma cells were maintained in RPMI (Biological Industries-BI) supplemented with 10% fetal bovine serum (FBS) (Gibco/Thermo Fisher Scientific), L-Glutamine (Gibco/Thermo Fisher Scientific), and 100 Units/mL Penicillin/Streptomycin, while ZR-75 breast cancer cells were cultured RPMI (Biological Industries-BI) supplemented with 10% fetal bovine serum (FBS) (Gibco/Thermo Fisher Scientific), 1× sodium pyruvate, and %4.5 glucose. Normal-like MCF-10A breast cells were sustained in DMEM/HAM’S F12 (Hyclone) supplemented with 10% fetal bovine serum (FBS) (Gibco/Thermo Fisher Scientific), EGF (20 ng/mL), Hydrocortisone ([…]), cholera toxin (100 ng/mL), insulin (10 μg/mL), and 100 Units/mL Penicillin/Streptomycin. The cells were cultivated at 37 °C in a humidified incubator under 5% CO2.
(§2) Mahlavu, FOCUS, SNU475 (1000 cell/well in 150 μL/well); Huh7, MCF7 (2500 cell/well in 150 μL/well); HepG2, Hep3B, SKBR3 (3000 cell/well in 150 μL/well); PLC-PRF-5, Hep40 (5000 cell/well in 150 μL/well); MDA-MB-231, MDA-MB-468, MCF10A (6000 cell/well in 150 μL/well); and ZR-75 (7500 cell/well in 150 μL/well) were cultured in 96-well plates and were inoculated in an incubator for 24 hours. The compounds were dissolved in dimethyl sulfoxide (DMSO) (Sigma, St Louis, MO) as a 20 mM stock solution. The treatment of cells with the compounds was done in a concentration range starting from 40 to 2.5 μM. The compounds which were below 2.5 μM were tested in a concentration range from 2.5 to 0.15 μM. End of the 72h compound treatment, the cells were fixed using 10% (v/v) trichloroacetic acid (MERCK) for an hour and washed with ddH2O, and left for air-drying. The fixed plates were stained with 50 μL of sulforhodamine B (SRB) solution (Sigma) at RT for 10 min. To remove unbound SRB dye, acetic acid was used to wash cells three times and left for drying. The protein-bound SRB was solubilized with 10 mM Tris-base (Sigma) and their absorbance was measured with a 96-well plate reader at 515 nm wavelength (ELx800, Biotek). The IC50 values of compounds were calculated in comparison with control group DMSO. Data with R^2 values larger than 0.9 are considered significant.
For orientation: In SRB staining, fixed cells bind dye roughly in proportion to their protein.

The subject of a further data set is MCF7. Nature of the data set: SRB cytotoxicity assay. Format: cell-based, human. Particulars: 72 h treatment. As to the method:
as §1, §2

Another data set deals with Mahlavu. The experiment in a line: SRB cytotoxicity assay. Format: cell-based, human. To be noted: Homo sapiens, Mahlavu, 72 h, 72 h treatment. As to the method:
as §1, §2

Each structure is given as a SMILES string. pIC50: −log10 of the molar value.

As to `Cc1ccccc1COc1ccc(-n2nccc2-c2ccc(Cl)cc2)cc1` [compound 78, 5-(4-Chlorophenyl)-1-(4-((2-methylbenyl)oxy)phenyl)-1H-pyrazole], the melting point is 145.2 to 146.4 °C. The compound also had a negative logarithm of the IC50 (pIC50) with Huh7 below 4.70. In the data set with MCF7 (Homo sapiens, MCF7, 72 h), this compound showed a pIC50 below 4.70. Also, the pIC50 in the data set on Mahlavu was below 4.70.
With `Cc1nc(-c2ccc(OCc3ccccc3C)cc2)c(-c2ccc(Cl)cc2)s1` [compound 75, 5-(4-Chlorophenyl)-2-methyl-4-(4-((2-methylbenzyl)oxy)phenyl)thiazole], the melting point lay within 90.5 to 92.1 °C. The pIC50 in the data set with Huh7 is below 4.70. In the data set with MCF7 (Homo sapiens, MCF7, 72 h), this compound had a pIC50 below 4.70. Besides, in the data set on Mahlavu, the pIC50 is below 4.70.
`Cc1ccccc1COc1ccc(-c2ccnn2-c2ccc(Cl)cc2)nc1` [compound 86, 2-(1-(4-Chlorophenyl)-1H-pyrazol-5-yl)-5-((2-methylbenzyl)oxy)pyridine] yielded a melting point of 108.4 to 110.4 °C. Further, the pIC50 in the data set with Huh7 was 5.70. In the data set with MCF7, the pIC50 is 4.66. The compound further gave a pIC50 with MCF7 (Homo sapiens, MCF7, 72 h) of at most 4.70. Besides, the negative logarithm of the IC50 (pIC50) with Mahlavu is 5.15.
Consider `Cc1onc(-c2ccc(OCc3cncn3C(C)C)cc2)c1-c1ccc(Cl)cc1` [compound 41, 4-(4-Chlorophenyl)-3-(4-((1-isopropyl-1H-imidazol-5-yl)methoxy)phenyl)-5-methylisoxazole], for which the melting point is 168.4 to 170.7 °C. In the data set on Huh7, this compound gave a pIC50 of 5.60. In addition, the pIC50 in the data set with MCF7 (Homo sapiens, MCF7, 72 h) is 4.78.
For `Cc1ccc(-c2c(-c3ccc(OCc4ccccc4C)cc3)noc2C)cc1` [compound 47, 5-Methyl-4-(4-methylphenyl)-3-(4-((2-methylbenzyl)oxy)phenyl)isoxazole] the same measures were 130.8 to 131.8 °C, 5.74 and 5.33.
In turn, `Cc1ccccc1COc1ccc(-c2noc(C)c2-c2ccccc2Cl)cc1` [compound 44, 5-Methyl-4-(2-chlorophenyl)-3-(4-((2-methylbenzyl)oxy)phenyl)isoxazole] had a melting point of 103.8 to 104.4 °C. In the data set with Huh7, this compound had a pIC50 below 4.70. This compound showed a pIC50 in the data set on MCF7 (Homo sapiens, MCF7, 72 h) of 5.00.
Compound `Cc1ccccc1COc1ccc(-c2noc(C)c2-c2ccc(N)cc2)cc1` [compound 51, 5-Methyl-4-(4-aminophenyl)-3-(4-((2-methylbenzyl)oxy)phenyl)isoxazole] yielded a melting point of 119.4 to 121.1 °C. Besides, the pIC50 in the data set on Huh7 is 4.77. The compound further showed a pIC50 in the data set on MCF7 (Homo sapiens, MCF7, 72 h) of 4.71.
In the same order, the values of `Cc1onc(-c2ccc(OCc3ccccc3F)cc2)c1-c1ccc(Cl)cc1` [compound 15, 4-(4-Chlorophenyl)-3-(4-((2-fluorobenzyl)oxy)phenyl)-5-methylisoxazole] are 119.5 to 120.9 °C, below 4.70 and below 4.70.
For `Cc1onc(-c2ccc(OCc3cccc(F)c3)cc2)c1-c1ccc(Cl)cc1` [compound 21, 4-(4-Chlorophenyl)-3-(4-((3-fluorobenzyl)oxy)phenyl)-5-methylisoxazole] the same measures were 98.1 to 99.8 °C, below 4.70 and below 4.70.
In the same order, the values of `COc1cccc(COc2ccc(-c3noc(C)c3-c3ccc(Cl)cc3)cc2)c1` [compound 20, 4-(4-Chlorophenyl)-3-(4-((3-methoxybenzyl)oxy)phenyl)-5-methylisoxazole] are 105.1 to 106.8 °C, 5.44 and 4.92.
As to `Cc1noc(C)c1COc1ccc(-c2noc(C)c2-c2ccc(Cl)cc2)cc1` [compound 39, 4-(4-Chlorophenyl)-3-(4-((3,5-dimethylisoxazol-4-yl)methoxy)phenyl)-5-methylisoxazole], the melting point is 138.9 to 141.3 °C. In the data set with Huh7, the pIC50 was 5.43. In addition, the negative-log IC50 (pIC50) in the data set with MCF7 (Homo sapiens, MCF7, 72 h) was below 4.70.
In the same order, the values of `COC(=O)c1ccc(COc2ccc(-c3noc(C)c3-c3ccc(Cl)cc3)cc2)cc1` [compound 28, Methyl-4-((4-(4-(4-chlorophenyl)-5-methylisoxazol-3-yl)phenoxy)methyl)benzoate] are 110.7 to 111.9 °C, 4.90 and below 4.70.
For `Cc1ccccc1COc1ccc(-c2noc(C)c2-c2ccc(Cl)cc2)c(F)c1` [compound 56, 4-(4-Chlorophenyl)-3-(2-fluoro-4-((2-methylbenzyl)oxy)phenyl)-5-methylisoxazole] the same measures were 96.1 to 98.3 °C, 5.65 and 5.02.
For `Cc1onc(-c2ccc(OCc3ccc(F)cc3)cc2)c1-c1ccc(Cl)cc1` [compound 26, 4-(4-Chlorophenyl)-3-(4-((4-fluorobenzyl)oxy)phenyl)-5-methylisoxazole] the same measures were 99.3 to 100.7 °C, 4.72 and 4.89.
Turning to `Cc1onc(-c2ccc(OCc3ccc(C#N)cc3)cc2)c1-c1ccc(Cl)cc1` [compound 27, 4-((4-(4-(4-Chlorophenyl)-5-methylisoxazol-3-yl)phenoxy)methyl)benzonitrile], the melting point was in the range of 138.5 to 139.5 °C. Moreover, the pIC50 in the data set on Huh7 was 4.93. The compound also had a pIC50 in the data set on MCF7 (Homo sapiens, MCF7, 72 h) below 4.70.
For the compound `COc1ccc(COc2ccc(-c3noc(C)c3-c3ccc(Cl)cc3)cc2)cc1` [compound 25, 4-(4-Chlorophenyl)-3-(4-((4-methoxybenzyl)oxy)phenyl)-5-methylisoxazole], the melting point is 126.1 to 127.4 °C. Besides, in the data set with Huh7, the pIC50 was below 4.70. In addition, in the data set with MCF7 (Homo sapiens, MCF7, 72 h), the pIC50 is below 4.70.
The compound `Cc1onc(-c2ccc(OCc3cccc(C#N)c3)cc2)c1-c1ccc(Cl)cc1` [compound 22, 3-((4-(4-(4-Chlorophenyl)-5-methylisoxazol-3-yl)phenoxy)methyl)benzonitrile] yielded a melting point of 114.4 to 115.6 °C. For the same compound, the pIC50 in the data set with Huh7 is 4.68. Further, the pIC50 in the data set with MCF7 (Homo sapiens, MCF7, 72 h) was below 4.70.
In the same order, the values of `Cc1onc(-c2ccc(OCc3ccccc3OC(F)(F)F)cc2)c1-c1ccc(Cl)cc1` [compound 13, 4-(4-Chlorophenyl)-5-methyl-3-(4-((2-(trifluoromethoxy)benzyl)oxy)phenyl)isoxazole] are 85.8 to 86.7 °C, 4.79 and below 4.70.
As for `Cc1ccccc1COc1ccc(-c2noc(C)c2-c2ccncc2)cc1` [compound 55, 5-Methyl-3-(4-((2-methylbenzyl)oxy)phenyl)-4-(pyridin-4-yl)isoxazole], the melting point lay in the range of 128.5 to 129.3 °C. The pIC50 in the data set with Huh7 is below 4.70. The compound also gave a pIC50 with MCF7 (Homo sapiens, MCF7, 72 h) below 4.70.
Regarding `Cc1onc(-c2ccc(OCc3ccc(C(F)(F)F)o3)cc2)c1-c1ccc(Cl)cc1` [compound 42, 4-(4-Chlorophenyl)-5-methyl-3-(4-((5-(trifluoromethyl)furan-2-yl)methoxy)phenyl) isoxazole], the melting point lay in the range of 105.7 to 106.8 °C. The compound also showed a pIC50 in the data set on Huh7 of 4.87. For the same compound, in the data set on MCF7 (Homo sapiens, MCF7, 72 h), the negative-log IC50 (pIC50) is 4.85.
For `Cc1ccc(COc2ccc(-c3noc(C)c3-c3ccc(Cl)cc3)cc2)c(C)c1` [compound 31, 4-(4-Chlorophenyl)-3-(4-((2,4-dimethylbenzyl)oxy)phenyl)-5-methylisoxazole] the same measures were 119.7 to 122.1 °C, 4.97 and below 4.70.
For `Cc1onc(-c2ccc(OCc3cccnc3)cc2)c1-c1ccc(Cl)cc1` [compound 32, 4-(4-Chlorophenyl)-5-methyl-3-(4-(pyridin-3-ylmethoxy)phenyl)isoxazole] the same measures were 115.5 to 116.4 °C, 5.11 and 5.08.
In the same order, the values of `COc1ccccc1COc1ccc(-c2noc(C)c2-c2ccc(Cl)cc2)cc1` [compound 12, 4-(4-Chlorophenyl)-3-(4-((2-methoxybenzyl)oxy)phenyl)-5-methylisoxazole] are 156.8 to 157.7 °C, below 4.70 and below 4.70.

Broadly, the pIC50 is the IC50 on a negative log10 scale, so that one unit is a factor of ten. Usually melting point stands for the temperature of the solid-liquid transition.
